Assay results published in PubChem BioAssay AID328 (DTP/NCI, 2004).
Several values for one entry are separate records, joined by “and”; a condition that tells them apart may be missing. Equal entries are not always repeated. Inconclusive results and toxic doses are left out.

System: BDF1 mice, P388 leukemia ip, median survival T/C
Assay: NCI In Vivo Anticancer Drug Screen. Data for tumor model P388 Leukemia (intraperitoneal) in B6D2F1 (BDF1) mice
Conditions: endpoint: median survival time, higher = longer survival
Method in brief: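 Transplantable tumour in mice; compound vs vehicle dosing; survival scored; ratio of treated to control reported.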

[1] = dose: 100.0 mg/kg/injection, schedule: Q04DX003 (ip), vehicle: saline with Tween-80
[2] = dose: 50.0 mg/kg/injection, schedule: Q01DX009 (ip), vehicle: saline with Tween-80
[3] = dose: 100.0 mg/kg/injection, schedule: Q01DX009 (ip), vehicle: saline with Tween-80
[4] = dose: 200.0 mg/kg/injection, schedule: Q01DX009 (ip), vehicle: saline with Tween-80
[5] = dose: 5.0 mg/kg/injection, schedule: Q01DX009 (ip), vehicle: saline with Tween-80
[6] = dose: 10.0 mg/kg/injection, schedule: Q01DX009 (ip), vehicle: saline with Tween-80
[7] = dose: 20.0 mg/kg/injection, schedule: Q01DX009 (ip), vehicle: saline with Tween-80
[8] = dose: 50.0 mg/kg/injection, schedule: Q04DX003 (ip), vehicle: saline with Tween-80
[9] = dose: 200.0 mg/kg/injection, schedule: Q04DX003 (ip), vehicle: saline with Tween-80

With C[CH2][Pb]([CH2]C)([CH2]C)[O]C(=O)CBr the T/C (dose: 2.0 mg/kg/injection, schedule: Q01DX009 (ip), vehicle: other) was 109 % of control, the T/C (dose: 4.5 mg/kg/injection, schedule: Q01DX009 (ip), vehicle: other) was 101 % of control and the T/C (dose: 6.0 mg/kg/injection, schedule: Q01DX009 (ip), vehicle: Klucel (hydroxypropylcellulose) (HPC)) was 120 % of control. For the same molecule, the T/C (dose: 12.0 mg/kg/injection, schedule: Q01DX009 (ip), vehicle: Klucel (hydroxypropylcellulose) (HPC)) was 103 % of control.
With CC1CN=C(c2ccc(NC(=O)Nc3ccc(C(=O)Nc4ccc(C5=NCC(C)N5)cc4)cc3)cc2)N1 (stereo not drawn) the T/C (dose: 66.0 mg/kg/injection, schedule: Q04DX003 (ip), vehicle: saline with Tween-80) was 168 % of control and 209 % of control, the T/C [1] was 90 % of control and 222 % of control and the T/C (dose: 150.0 mg/kg/injection, schedule: Q04DX003 (ip), vehicle: saline with Tween-80) was 100 % of control.
For O=c1c2cc3nc4ccccn4c(=O)c3cc2nc2ccccn12, the T/C [2] was 91 % of control, the T/C [3] was 86 % of control and the T/C [4] was 91 % of control.
With Cc1cccc2c(Nc3ccc(NS(C)(=O)=O)cc3)c3ccccc3nc12 the T/C (dose: 0.88 mg/kg/injection, schedule: Q01DX009 (ip), vehicle: saline with Tween-80) was 123 % of control, the T/C (dose: 2.93 mg/kg/injection, schedule: Q04DX003 (ip), vehicle: saline with Tween-80) was 118 % of control and the T/C (dose: 3.0 mg/kg/injection, schedule: Q01DX009 (ip), vehicle: saline with Tween-80) was 153 % of control. For the same molecule, the T/C [5] was 166 % of control, the T/C [6] was 203 % of control and the T/C [7] was 197 % of control. The T/C (dose: 20.0 mg/kg/injection, schedule: Q04DX003 (ip), vehicle: saline with Tween-80) was 150 % of control, the T/C (dose: 22.0 mg/kg/injection, schedule: Q04DX003 (ip), vehicle: saline with Tween-80) was 168 % of control and the T/C (dose: 30.0 mg/kg/injection, schedule: Q04DX003 (ip), vehicle: saline with Tween-80) was 154 % of control. The T/C (dose: 33.0 mg/kg/injection, schedule: Q04DX003 (ip), vehicle: saline with Tween-80) was 181 % of control, the T/C [8] was 245 % of control and the T/C (dose: 75.0 mg/kg/injection, schedule: Q04DX003 (ip), vehicle: saline with Tween-80) was 259 % of control. The T/C [1] was 204 % of control and the T/C [9] was 272 % of control.
CC(C)c1c[nH]c(=O)[nH]c1=O was tested, and the T/C (dose: 100.0 mg/kg/injection, schedule: Q01DX001 (ip), vehicle: saline) was 100 % of control, the T/C (dose: 100.0 mg/kg/injection, schedule: Q04DX003 (ip), vehicle: Klucel (hydroxypropylcellulose) (HPC)) was 104 % of control and the T/C (dose: 200.0 mg/kg/injection, schedule: Q01DX001 (ip), vehicle: saline) was 95 % of control. The T/C (dose: 200.0 mg/kg/injection, schedule: Q04DX003 (ip), vehicle: Klucel (hydroxypropylcellulose) (HPC)) was 90 % of control, the T/C (dose: 400.0 mg/kg/injection, schedule: Q01DX001 (ip), vehicle: saline) was 100 % of control and the T/C (dose: 400.0 mg/kg/injection, schedule: Q04DX003 (ip), vehicle: Klucel (hydroxypropylcellulose) (HPC)) was 104 % of control.
With CC(=O)Nc1ccc(S(=O)(=O)F)cc1 the T/C [8] was 87 % of control, the T/C [1] was 104 % of control and the T/C [9] was 100 % of control.
With CCC1=C2C(=O)c3ccccc3C2=C(C)S(=O)(=O)O1 the T/C (dose: 6.25 mg/kg/injection, schedule: Q01DX009 (ip), vehicle: saline with Tween-80) was 113 % of control and 118 % of control, the T/C (dose: 12.5 mg/kg/injection, schedule: Q01DX009 (ip), vehicle: saline with Tween-80) was 118 % of control and the T/C (dose: 25.0 mg/kg/injection, schedule: Q01DX009 (ip), vehicle: saline with Tween-80) was 122 % of control.
For O=c1nc(Oc2ccccc2)nc2cnccn12, the T/C [2] was 88 % of control and the T/C [3] was 88 % of control.
For Cc1cccc(CSc2nc(N)nc3c2ncn3C2CC(O)C(CO)O2)n1 (stereo not drawn), the T/C (dose: 100.0 mg/kg/injection, schedule: Q04DX003 (ip), vehicle: saline) was 92 % of control, the T/C (dose: 200.0 mg/kg/injection, schedule: Q04DX003 (ip), vehicle: saline) was 98 % of control and the T/C (dose: 400.0 mg/kg/injection, schedule: Q04DX003 (ip), vehicle: saline) was 104 % of control.
In the case of C1=Cc2c3c(c4c(c2C1)C=CC4)C=CC3, the T/C [2] is reported as 91 % of control, the T/C [3] is reported as 93 % of control and the T/C [4] is reported as 95 % of control.
For C=CCC(CC)(C(=O)OCC)C(=O)OCC, the T/C (dose: 100.0 mg/kg/injection, schedule: Q01DX009 (ip), vehicle: saline) was 100 % of control, the T/C (dose: 200.0 mg/kg/injection, schedule: Q01DX009 (ip), vehicle: saline) was 104 % of control and the T/C (dose: 400.0 mg/kg/injection, schedule: Q01DX009 (ip), vehicle: saline) was 122 % of control.
In the case of COc1cc2cc(c1Cl)N(C)C(=O)/C=C/C1(C)OC1C(C)C1CC(O)(NC(=O)O1)C(OC)C=C/C=C(\C)C2 (stereo not drawn), the T/C (dose: 0.2 micrograms/kg/injection, schedule: Q01DX009 (ip), vehicle: saline + alcohol) is reported as 90 % of control, the T/C (dose: 0.4 micrograms/kg/injection, schedule: Q01DX009 (ip), vehicle: saline + alcohol) is reported as 90 % of control and the T/C (dose: 0.8 micrograms/kg/injection, schedule: Q01DX009 (ip), vehicle: saline + alcohol) is reported as 90 % of control. For the same molecule, the T/C (dose: 1.6 micrograms/kg/injection, schedule: Q01DX009 (ip), vehicle: saline + alcohol) was 90 % of control, the T/C (dose: 3.1 micrograms/kg/injection, schedule: Q01DX009 (ip), vehicle: saline + alcohol) was 90 % of control and the T/C (dose: 100.0 micrograms/kg/injection, schedule: Q01DX009 (ip), vehicle: saline + alcohol) was 110 % of control.
In the case of ClCCN(CCCl)CCN1c2ccccc2Sc2ccccc21, the T/C (dose: 0.79 mg/kg/injection, schedule: Q01DX009 (ip), vehicle: Klucel (hydroxypropylcellulose) (HPC)) is reported as 90 % of control, the T/C (dose: 1.1 mg/kg/injection, schedule: Q01DX009 (ip), vehicle: Klucel (hydroxypropylcellulose) (HPC)) is reported as 90 % of control and the T/C (dose: 2.5 mg/kg/injection, schedule: Q01DX009 (ip), vehicle: saline with Tween-80) is reported as 150 % of control. For the same molecule, the T/C (dose: 4.0 mg/kg/injection, schedule: Q01DX009 (ip), vehicle: Klucel (hydroxypropylcellulose) (HPC)) was 170 % of control, the T/C [5] was 186 % of control and the T/C (dose: 9.37 mg/kg/injection, schedule: Q01DX009 (ip), vehicle: Klucel (hydroxypropylcellulose) (HPC)) was 150 % of control. For the same molecule, the T/C [6] was 186 % of control, the T/C (dose: 12.5 mg/kg/injection, schedule: Q04DX003 (ip), vehicle: Klucel (hydroxypropylcellulose) (HPC)) was 160 % of control and the T/C (dose: 17.0 mg/kg/injection, schedule: Q04DX003 (ip), vehicle: Klucel (hydroxypropylcellulose) (HPC)) was 166 % of control. The T/C (dose: 17.5 mg/kg/injection, schedule: Q04DX003 (ip), vehicle: Klucel (hydroxypropylcellulose) (HPC)) was 185 % of control, the T/C [7] was 95 % of control and the T/C (dose: 23.0 mg/kg/injection, schedule: Q04DX003 (ip), vehicle: Klucel (hydroxypropylcellulose) (HPC)) was 109 % of control. For the same molecule, the T/C (dose: 25.0 mg/kg/injection, schedule: Q04DX003 (ip), vehicle: Klucel (hydroxypropylcellulose) (HPC)) was 175 % of control and 200 % of control, the T/C (dose: 35.0 mg/kg/injection, schedule: Q04DX003 (ip), vehicle: Klucel (hydroxypropylcellulose) (HPC)) was 109 % of control and 210 % of control and the T/C (dose: 37.0 mg/kg/injection, schedule: Q04DX003 (ip), vehicle: Klucel (hydroxypropylcellulose) (HPC)) was 185 % of control. For the same molecule, the T/C (dose: 37.5 mg/kg/injection, schedule: Q01DX009 (ip), vehicle: Klucel (hydroxypropylcellulose) (HPC)) was 170 % of control, the T/C (dose: 50.0 mg/kg/injection, schedule: Q04DX003 (ip), vehicle: Klucel (hydroxypropylcellulose) (HPC)) was 109 % of control and the T/C [8] was 104 % of control.
For c1cc[c]([Pb]([c]2ccccc2)([c]2ccccc2)[n]2c3ccccc3c3ccccc32)cc1, the T/C (dose: 0.19 mg/kg/injection, schedule: Q01DX009 (ip), vehicle: saline) was 90 % of control, the T/C (dose: 0.39 mg/kg/injection, schedule: Q01DX009 (ip), vehicle: saline) was 100 % of control and the T/C (dose: 0.78 mg/kg/injection, schedule: Q01DX009 (ip), vehicle: saline) was 95 % of control. For the same molecule, the T/C (dose: 1.56 mg/kg/injection, schedule: Q01DX009 (ip), vehicle: saline) was 100 % of control, the T/C (dose: 3.0 mg/kg/injection, schedule: Q04DX003 (ip), vehicle: saline) was 112 % of control and the T/C (dose: 4.12 mg/kg/injection, schedule: Q01DX009 (ip), vehicle: saline) was 100 % of control. The T/C (dose: 6.0 mg/kg/injection, schedule: Q04DX003 (ip), vehicle: saline) was 116 % of control and the T/C (dose: 12.0 mg/kg/injection, schedule: Q04DX003 (ip), vehicle: saline) was 104 % of control.
CN=S(=O)(OCCOCCOS(=O)(=NC)c1ccc(C)cc1)c1ccc(C)cc1 (stereo not drawn) was tested, and the T/C [2] was 111 % of control, the T/C [3] was 108 % of control and the T/C [4] was 114 % of control.
With COC1C(=[N+]=[N-])C(=O)NC(=O)N1C (stereo not drawn) the T/C (dose: 12.5 mg/kg/injection, schedule: Q04DX003 (ip), vehicle: water) was 120 % of control.
